# PMC5365648, “Pharmacokinetics of the Novel Echinocandin CD101 in Multiple Animal Species” (Antimicrobial Agents and Chemotherapy, 2017)
# Where two headings read alike, the source gives them in different places. Starred links: 1 amine or outer side, 2 acyl side, 3 side chain; linkers in the order of their positions; H or OH if unused. Positions of bridges follow the written chain, without caps; N, C: chain ends. Non-standard residues stand in square brackets, D forms with d. Residues, ends and D or L forms follow the SMILES beside them. *: point of attachment. Orn(4R-OH,5R-OCH2CH2NMe3+) = C[N+](C)(C)CCO[C@@H](N[*:3])[C@H](O)C[C@H](N[*:1])C(=O)[*:2]; pTerphenylCO(4''-OnC5H11) = CCCCCOc1ccc(-c2ccc(-c3ccc(C(=O)*)cc3)cc2)cc1; hTyr(3S-OH,4S-OH) = N[C@H](C(=O)O)[C@H](O)[C@@H](O)c1ccc(O)cc1; Pro(3S-OH,4S-Me) = C[C@H]1CN[C@H](C(=O)O)[C@H]1O; Hyp = O=C(O)[C@@H]1C[C@@H](O)CN1
# Assay: Rat pharmacokinetics, i.v. bolus
# Format: in vivo, Sprague-Dawley rats
# Settings: plasma, LC-MS/MS, noncompartmental, n = 3 to 5/dose; for AUC(0-inf) / AUC(0-t) / Cmax / half-life / clearance / Vd: rat, in vivo, iv; for clearance: read-out: CL (clearance); for Vd: read-out: Vss (volume of distribution at steady state)
# Experimental: In one of three rat studies reported here, a single 5-, 15-, or 45-mg/kg dose of CD101 was administered by slow i.v. bolus (∼3 min) to Sprague-Dawley rats (n = 3 to 5/dose). Blood samples (via jugular vein catheter [JVC]) were drawn for plasma processing at 0.083, 0.25, 0.5, 1, 2, 4, 8, 24, 48, 120, 168, and 240 h after dosing. In the second rat study, conducted to assess tissue distribution, a single 5-mg/kg dose of CD101 was administered by slow i.v. bolus (∼3 min) to male Sprague-Dawley rats (n = 3 animals/time point). Blood samples (via cardiac puncture) were collected for plasma processing predose and at 0.083, 0.5, 1, 2, 4, 8, 24, 48, 72, 96, and 120 h postdose. In parallel with blood collection, animals were euthanized, and tissues (liver, lungs, kidneys, heart, spleen, and brain) were excised and frozen prior to analysis. In the third rat study, conducted to assess excretion, a single 5-mg/kg dose of CD101 was administered by slow i.v. bolus (∼3 min) to bile duct-cannulated male Sprague-Dawley rats (n = 3). Bile samples were collected from each animal into prelabeled bile collection tubes predose and at 0 to 8, 8 to 24, 24 to 48, 48 to 72, 72 to 96, and 96 to 120 h postdose; urine samples were collected from each animal at the same time points pre- and postdose.
# For each of the pharmacokinetic studies, whole-blood samples (K3EDTA as anticoagulant) were collected and centrifuged within 30 min of collection. The resulting plasma was harvested and stored at −20°C until analysis. Tissue samples were homogenized by a bead-based homogenizer following the addition of deionized water to excised tissue in a 2:1 (vol/wt) ratio and stored at −20°C until analysis. Prior to analysis, plasma or homogenized tissue samples were quenched with acetonitrile (3:1, acetonitrile-plasma or tissue ratio) containing an appropriate internal standard (isotopically labeled d9-CD101 [mouse and rat] or a structural analog [dog, monkey, and chimpanzee]). Plasma and tissue homogenate concentrations (quantified against calibration standards processed the same way) were determined by reverse-phase, gradient liquid chromatography with tandem mass spectrometric detection (LC-MS/MS) using an AB-SCIEX API 3200Q/4000 mass spectrometry system. Calibration standard ranges were the following: 0.400 (lower limit of quantitation, [LLOQ]) to 200 μg/ml (CD101, mouse), 0.040 (LLOQ) to 10 μg/ml (anidulafungin, mouse), 0.002 (LLOQ) to 10 μg/ml (CD101, rat), 0.005 (LLOQ) to 10 μg/ml (anidulafungin, rat), 0.050 (LLOQ) to 10 μg/ml (CD101, dog), 0.020 (LLOQ) to 10 μg/ml (anidulafungin, dog), 0.010 (LLOQ) to 10 μg/ml (CD101, monkey), 0.001 (LLOQ) to 10 μg/ml (anidulafungin, monkey), 0.015 (LLOQ) to 10 μg/ml (CD101, chimpanzee), and 0.015 (LLOQ) to 10 μg/ml (anidulafungin, chimpanzee). When necessary, dilutions with blank matrix were made for samples that quantified above the upper limit of quantitation. The methods used in the analysis were qualified as fit for purpose: calibration standards were matrix matched with the exception that human plasma calibration standards were used to analyze chimpanzee plasma samples due to the rarity of blank chimpanzee plasma, and, for each analytical batch, triplicate calibration standards were included at the beginning, approximately in the middle, and at the end of the batch. Following analysis, quantitation was carried out by a calibration curve comprising the analyte/internal standard area ratio versus concentration. Analytical batch acceptance followed the general guidance that triplicate standards/quality controls be within ±20% for accuracy (percentage of nominal concentration) and ≤20% for precision (percent coefficient of variation).
# Pharmacokinetic parameters were calculated by noncompartmental analysis using Phoenix WinNonlin (version 6.3; Pharsight, Mountain View, CA) from either individual or mean (mouse) concentration-time profiles. An unpaired t test was used to compare mean exposures from male and female rats.
# [1] = 5 mg/kg, female Sprague-Dawley rats, single 5 mg/kg slow i.v. bolus
# [2] = 5 mg/kg, male Sprague-Dawley rats, single 5 mg/kg slow i.v. bolus
# [3] = 15 mg/kg, female Sprague-Dawley rats, single 15 mg/kg slow i.v. bolus
# [4] = 15 mg/kg, male Sprague-Dawley rats, single 15 mg/kg slow i.v. bolus
# [5] = 45 mg/kg, female Sprague-Dawley rats, single 45 mg/kg slow i.v. bolus
smiles,measurement,setting,value
"CCCCCOc1ccc(-c2ccc(-c3ccc(C(=O)N[C@H]4C[C@@H](O)[C@@H](OCC[N+](C)(C)C)NC(=O)[C@@H]5[C@@H](O)[C@@H](C)CN5C(=O)[C@H]([C@@H](C)O)NC(=O)[C@H]([C@H](O)[C@@H](O)c5ccc(O)cc5)NC(=O)[C@@H]5C[C@@H](O)CN5C(=O)[C@H]([C@@H](C)O)NC4=O)cc3)cc2)cc1 [CD101] ({pTerphenylCO(4''-OnC5H11)}-[Orn(4R-OH,5R-OCH2CH2NMe3+)]T[Hyp][hTyr(3S-OH,4S-OH)]T[Pro(3S-OH,4S-Me)]; lactam 1-C)",Tmax,"female Sprague-Dawley rats, single 5 mg/kg slow i.v. bolus",4.98 min
same,Tmax,"male Sprague-Dawley rats, single 15 mg/kg slow i.v. bolus",4.98 min
same,Tmax,"male Sprague-Dawley rats, single 45 mg/kg slow i.v. bolus",4.98 min
same,AUC(0-inf),[1],188 µg·h/mL
same,AUC(0-t),[1],185 µg·h/mL
same,Cmax,[1],10500 ng/mL
same,half-life,[1],35.7 h
same,clearance,[1],0.444 mL/min/kg
same,Vd,[1],1.21 L/kg
same,AUC(0-inf),[2],183 µg·h/mL
same,AUC(0-t),[2],180 µg·h/mL
same,Cmax,[2],12000 ng/mL
same,half-life,[2],34.9 h
same,clearance,[2],0.456 mL/min/kg
same,Vd,[2],1.16 L/kg
same,AUC(0-inf),[3],441 µg·h/mL
same,AUC(0-t),[3],435 µg·h/mL
same,Cmax,[3],27600 ng/mL
same,half-life,[3],34.9 h
same,clearance,[3],0.567 mL/min/kg
same,Vd,[3],1.45 L/kg
same,AUC(0-inf),[4],580 µg·h/mL
same,AUC(0-t),[4],562 µg·h/mL
same,Cmax,[4],35900 ng/mL
same,half-life,[4],42.7 h
same,clearance,[4],0.431 mL/min/kg
same,Vd,[4],1.42 L/kg
same,AUC(0-inf),[5],1510 µg·h/mL
same,AUC(0-t),[5],1490 µg·h/mL
same,Cmax,[5],115000 ng/mL
same,half-life,[5],39.9 h
same,clearance,[5],0.496 mL/min/kg
